Assay results from ChEMBL document CHEMBL3046781, “Resistance of Helicoverpa assulta (Guenée) (Lepidoptera: Noctuidae) to fenvalerate, phoxim and methomyl in China” (2009).

Assays:
Assay type in all cases: functional
Helicoverpa assulta [1] = assay: Resistance factor, ratio of LD50 for sixth-instar larvae of Helicoverpa assulta YN1 to LD50 for sixth-instar larvae of Helicoverpa assulta at 39 to 12630 mg/l
Helicoverpa assulta [2] = assay: Resistance factor, ratio of LD50 for sixth-instar larvae of Helicoverpa assulta FJ3 to LD50 for sixth-instar larvae of Helicoverpa assulta at 39 to 12630 mg/l
Helicoverpa assulta [3] = assay: Resistance factor, ratio of LD50 for sixth-instar larvae of Helicoverpa assulta GZ5 to LD50 for sixth-instar larvae of Helicoverpa assulta at 39 to 12630 mg/l
Helicoverpa assulta [4] = assay: Resistance factor, ratio of LD50 for sixth-instar larvae of Helicoverpa assulta HN1 to LD50 for sixth-instar larvae of Helicoverpa assulta at 39 to 12630 mg/l
Helicoverpa assulta [5] = assay: Resistance factor, ratio of LD50 for sixth-instar larvae of Helicoverpa assulta HB1 to LD50 for sixth-instar larvae of Helicoverpa assulta at 39 to 12630 mg/l
Helicoverpa assulta [6] = assay: Insecticidal activity against sixth-instar larvae of Helicoverpa assulta GZ3 at 39 to 12630 mg/l after 48 hr by chi-squared analysis
Helicoverpa assulta [7] = assay: Insecticidal activity against sixth-instar larvae of Helicoverpa assulta HN1 at 39 to 12630 mg/l after 48 hr by chi-squared analysis
Helicoverpa assulta [8] = assay: Insecticidal activity against sixth-instar larvae of Helicoverpa assulta HN2 at 39 to 12630 mg/l after 48 hr by chi-squared analysis
Helicoverpa assulta [9] = assay: Resistance factor, ratio of LD50 for sixth-instar larvae of Helicoverpa assulta YN8 to LD50 for sixth-instar larvae of Helicoverpa assulta at 39 to 12630 mg/l
Helicoverpa assulta [10] = assay: Insecticidal activity against sixth-instar larvae of Helicoverpa assulta FJ3 at 39 to 12630 mg/l after 48 hr by chi-squared analysis
Helicoverpa assulta [11] = assay: Insecticidal activity against sixth-instar larvae of Helicoverpa assulta GZ4 at 39 to 12630 mg/l after 48 hr by chi-squared analysis
Helicoverpa assulta [12] = assay: Insecticidal activity against sixth-instar larvae of Helicoverpa assulta FJ1 at 39 to 12630 mg/l after 48 hr by chi-squared analysis
Helicoverpa assulta [13] = assay: Insecticidal activity against sixth-instar larvae of Helicoverpa assulta GZ5 at 39 to 12630 mg/l after 48 hr by chi-squared analysis
Helicoverpa assulta [14] = assay: Insecticidal activity against sixth-instar larvae of Helicoverpa assulta HB2 at 39 to 12630 mg/l after 48 hr by chi-squared analysis
Helicoverpa assulta [15] = assay: Resistance factor, ratio of LD50 for sixth-instar larvae of Helicoverpa assulta GZ1 to LD50 for sixth-instar larvae of Helicoverpa assulta at 39 to 12630 mg/l
Helicoverpa assulta [16] = assay: Resistance factor, ratio of LD50 for sixth-instar larvae of Helicoverpa assulta YN3 to LD50 for sixth-instar larvae of Helicoverpa assulta at 39 to 12630 mg/l
Helicoverpa assulta [17] = assay: Resistance factor, ratio of LD50 for sixth-instar larvae of Helicoverpa assulta FJ3 to LD50 for sixth-instar larvae of Helicoverpa assulta at 1.8 to 183360 mg/l
Helicoverpa assulta [18] = assay: Resistance factor, ratio of LD50 for sixth-instar larvae of Helicoverpa assulta FJ2 to LD50 for sixth-instar larvae of Helicoverpa assulta at 1.8 to 183360 mg/l
Helicoverpa assulta [19] = assay: Resistance factor, ratio of LD50 for sixth-instar larvae of Helicoverpa assulta GZ1 to LD50 for sixth-instar larvae of Helicoverpa assulta at 1.8 to 183360 mg/l
Helicoverpa assulta [20] = assay: Resistance factor, ratio of LD50 for sixth-instar larvae of Helicoverpa assulta AH1 to LD50 for sixth-instar larvae of Helicoverpa assulta at 1.8 to 183360 mg/l
Helicoverpa assulta [21] = assay: Insecticidal activity against sixth-instar larvae of Helicoverpa assulta HB1 at 1.8 to 183360 mg/l after 48 hr by chi-squared analysis
Helicoverpa assulta [22] = assay: Insecticidal activity against sixth-instar larvae of Helicoverpa assulta FJ1 at 1.8 to 183360 mg/l after 48 hr by chi-squared analysis
Helicoverpa assulta [23] = assay: Insecticidal activity against sixth-instar larvae of Helicoverpa assulta FJ3 at 1.8 to 183360 mg/l after 48 hr by chi-squared analysis
Helicoverpa assulta [24] = assay: Insecticidal activity against sixth-instar larvae of Helicoverpa assulta YN3 at 1.8 to 183360 mg/l after 48 hr by chi-squared analysis
Helicoverpa assulta [25] = assay: Insecticidal activity against sixth-instar larvae of Helicoverpa assulta AH1 at 1.8 to 183360 mg/l after 48 hr by chi-squared analysis
Helicoverpa assulta [26] = assay: Insecticidal activity against sixth-instar larvae of Helicoverpa assulta YN6 at 1.8 to 183360 mg/l after 48 hr by chi-squared analysis
Helicoverpa assulta [27] = assay: Insecticidal activity against sixth-instar larvae of Helicoverpa assulta YN4 at 1.8 to 183360 mg/l after 48 hr by chi-squared analysis
Helicoverpa assulta [28] = assay: Insecticidal activity against sixth-instar larvae of Helicoverpa assulta SD2 at 1.8 to 183360 mg/l after 48 hr by chi-squared analysis
Helicoverpa assulta [29] = assay: Insecticidal activity against sixth-instar larvae of Helicoverpa assulta SD1 at 21 to 3390 mg/l after 48 hr by chi-squared analysis
Helicoverpa assulta [30] = assay: Insecticidal activity against sixth-instar larvae of Helicoverpa assulta GZ2 at 21 to 3390 mg/l after 48 hr by chi-squared analysis
Helicoverpa assulta [31] = assay: Resistance factor, ratio of LD50 for sixth-instar larvae of Helicoverpa assulta YN3 to LD50 for sixth-instar larvae of Helicoverpa assulta at 21 to 3390 mg/l
Helicoverpa assulta [32] = assay: Resistance factor, ratio of LD50 for sixth-instar larvae of Helicoverpa assulta FJ1 to LD50 for sixth-instar larvae of Helicoverpa assulta at 21 to 3390 mg/l
Helicoverpa assulta [33] = assay: Resistance factor, ratio of LD50 for sixth-instar larvae of Helicoverpa assulta YN6 to LD50 for sixth-instar larvae of Helicoverpa assulta at 21 to 3390 mg/l
Helicoverpa assulta [34] = assay: Resistance factor, ratio of LD50 for sixth-instar larvae of Helicoverpa assulta AH3 to LD50 for sixth-instar larvae of Helicoverpa assulta at 21 to 3390 mg/l

SMILES: CCOP(=S)(OCC)O/N=C(\C#N)c1ccccc1 [PHOXIM]
- Ratio (Helicoverpa assulta [1]): 8.72
- Ratio (Helicoverpa assulta [2]): 8.15
- Ratio (Helicoverpa assulta [3]): 7.1
- Ratio (Helicoverpa assulta [4]): 4.5
- Ratio (Helicoverpa assulta [5]): 3.49
- LD90 (Helicoverpa assulta [6]): 65.3 µg/g
- LD50 (Helicoverpa assulta [6]; Helicoverpa assulta, GZ3, 48 h): 20.9 mg/kg
- LD90 (Helicoverpa assulta [7]): 23.1 µg/g
- LD50 (Helicoverpa assulta [7]; Helicoverpa assulta, HN1, 48 h): 10.5 mg/kg
- LD90 (Helicoverpa assulta [8]): 19.9 µg/g
- LD50 (Helicoverpa assulta [8]; Helicoverpa assulta, HN2, 48 h): 8.22 mg/kg
- Ratio (Helicoverpa assulta [9]): 17.2
- LD90 (Helicoverpa assulta [10]): 36.9 µg/g
- LD50 (Helicoverpa assulta [10]; Helicoverpa assulta, FJ3, 48 h): 19 mg/kg
- LD90 (Helicoverpa assulta [11]): 51.7 µg/g
- LD50 (Helicoverpa assulta [11]; Helicoverpa assulta, GZ4, 48 h): 18.4 mg/kg
- LD90 (Helicoverpa assulta [12]): 62.2 µg/g
- LD50 (Helicoverpa assulta [12]; Helicoverpa assulta, FJ1, 48 h): 16.7 mg/kg
- LD90 (Helicoverpa assulta [13]): 33.7 µg/g
- LD50 (Helicoverpa assulta [13]; Helicoverpa assulta, GZ5, 48 h): 16.6 mg/kg
- LD90 (Helicoverpa assulta [14]): 37.4 µg/g
- LD50 (Helicoverpa assulta [14]; Helicoverpa assulta, HB2, 48 h): 11.8 mg/kg
- Ratio (Helicoverpa assulta [15]): 14.3
- Ratio (Helicoverpa assulta [16]): 12.5

SMILES: CC(C)C(C(=O)OC(C#N)c1cccc(Oc2ccccc2)c1)c1ccc(Cl)cc1 (configuration not stated) [FENVALERATE]
- Ratio (Helicoverpa assulta [17]): 9.06
- Ratio (Helicoverpa assulta [18]): 12.9
- Ratio (Helicoverpa assulta [19]): 1860
- Ratio (Helicoverpa assulta [20]): 2054
- LD90 (Helicoverpa assulta [21]): 7.34 µg/g
- LD50 (Helicoverpa assulta [21]; Helicoverpa assulta, HB1, 48 h): 0.944 mg/kg
- LD90 (Helicoverpa assulta [22]): 5.67 µg/g
- LD50 (Helicoverpa assulta [22]; Helicoverpa assulta, FJ1, 48 h): 1.46 mg/kg
- LD90 (Helicoverpa assulta [23]): 3.39 µg/g
- LD50 (Helicoverpa assulta [23]; Helicoverpa assulta, FJ3, 48 h): 1.47 mg/kg
- LD90 (Helicoverpa assulta [24]): 388 µg/g
- LD50 (Helicoverpa assulta [24]; Helicoverpa assulta, YN3, 48 h): 227 mg/kg
- LD90 (Helicoverpa assulta [25]): 833 µg/g
- LD50 (Helicoverpa assulta [25]; Helicoverpa assulta, AH1, 48 h): 333 mg/kg
- LD90 (Helicoverpa assulta [26]): 1467 µg/g
- LD50 (Helicoverpa assulta [26]; Helicoverpa assulta, YN6, 48 h): 667 mg/kg
- LD90 (Helicoverpa assulta [27]): 4847 µg/g
- LD50 (Helicoverpa assulta [27]; Helicoverpa assulta, YN4, 48 h): 1500 mg/kg
- LD90 (Helicoverpa assulta [28]): 27.2 µg/g
- LD50 (Helicoverpa assulta [28]; Helicoverpa assulta, SD2, 48 h): 1.94 mg/kg

SMILES: CNC(=O)ON=C(C)SC [METHOMYL]
- LD90 (Helicoverpa assulta [29]): 19.5 µg/g
- LD50 (Helicoverpa assulta [29]; Helicoverpa assulta, SD1, 48 h): 5.68 mg/kg
- LD90 (Helicoverpa assulta [30]): 52.6 µg/g
- LD50 (Helicoverpa assulta [30]; Helicoverpa assulta, GZ2, 48 h): 20.1 mg/kg
- Ratio (Helicoverpa assulta [31]): 23.1
- Ratio (Helicoverpa assulta [32]): 14.6
- Ratio (Helicoverpa assulta [33]): 13.7
- Ratio (Helicoverpa assulta [34]): 12.7
